Data taken from ChEMBL document CHEMBL5465560, “Selectivity Literature for EUbOPEN Chemogenomic Library” (2024).
Each block holds one molecule with its values, some of them ahead of it.

Legend:
[1] = target: T1, Protein kinase C epsilon type (Homo sapiens) (UniProt Q02156); conditions: at 10 µM
T1 sequence (whole entry): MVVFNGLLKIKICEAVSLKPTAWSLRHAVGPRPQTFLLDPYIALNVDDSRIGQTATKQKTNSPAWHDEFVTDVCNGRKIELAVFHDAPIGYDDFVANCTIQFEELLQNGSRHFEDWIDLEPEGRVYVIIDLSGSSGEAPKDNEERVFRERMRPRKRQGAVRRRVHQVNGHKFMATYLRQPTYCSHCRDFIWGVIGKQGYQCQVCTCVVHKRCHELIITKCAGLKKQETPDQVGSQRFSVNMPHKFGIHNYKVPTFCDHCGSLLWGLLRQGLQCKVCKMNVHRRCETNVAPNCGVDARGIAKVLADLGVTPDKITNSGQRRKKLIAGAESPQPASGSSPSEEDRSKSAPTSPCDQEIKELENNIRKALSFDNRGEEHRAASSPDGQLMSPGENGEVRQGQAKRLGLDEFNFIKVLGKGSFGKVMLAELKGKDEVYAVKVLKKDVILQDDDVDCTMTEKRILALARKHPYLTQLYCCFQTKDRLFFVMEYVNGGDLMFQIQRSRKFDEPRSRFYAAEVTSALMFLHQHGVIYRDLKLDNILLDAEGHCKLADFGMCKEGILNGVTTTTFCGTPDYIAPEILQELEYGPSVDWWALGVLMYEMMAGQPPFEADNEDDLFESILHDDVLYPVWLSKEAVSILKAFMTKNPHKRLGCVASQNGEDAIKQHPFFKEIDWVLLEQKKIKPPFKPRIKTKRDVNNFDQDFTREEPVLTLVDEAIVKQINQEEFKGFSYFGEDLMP

[2] = target: Serine/threonine-protein kinase 24 (Homo sapiens) (UniProt Q9Y6E0); assay: Selectivity interaction (ActivX KiNativ screen (kinase selectivity in THP-1 cell lysates)) EUB0000639a STK24; type: subcellular; conditions: lysate, at 0.01 µM
Sequence of Serine/threonine-protein kinase 24 (Homo sapiens) (Q9Y6E0 whole entry, looked up): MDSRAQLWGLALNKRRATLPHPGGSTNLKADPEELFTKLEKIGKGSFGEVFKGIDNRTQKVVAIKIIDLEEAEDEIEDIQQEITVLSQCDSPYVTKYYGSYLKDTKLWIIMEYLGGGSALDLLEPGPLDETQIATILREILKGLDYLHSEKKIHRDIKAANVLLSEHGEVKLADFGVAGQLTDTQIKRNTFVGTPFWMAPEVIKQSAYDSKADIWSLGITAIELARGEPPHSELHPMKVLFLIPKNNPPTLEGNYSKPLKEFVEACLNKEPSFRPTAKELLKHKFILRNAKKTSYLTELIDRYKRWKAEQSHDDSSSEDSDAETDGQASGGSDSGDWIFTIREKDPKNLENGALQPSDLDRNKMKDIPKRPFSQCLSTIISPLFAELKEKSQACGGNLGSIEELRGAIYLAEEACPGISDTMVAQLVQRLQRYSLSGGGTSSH

[3] = target: RAC-alpha serine/threonine-protein kinase (Homo sapiens, UniProt P31749); assay: Selectivity interaction (KinomeScan (DiscoverX)) EUB0000045b AKT1
Sequence of RAC-alpha serine/threonine-protein kinase (P31749 whole entry): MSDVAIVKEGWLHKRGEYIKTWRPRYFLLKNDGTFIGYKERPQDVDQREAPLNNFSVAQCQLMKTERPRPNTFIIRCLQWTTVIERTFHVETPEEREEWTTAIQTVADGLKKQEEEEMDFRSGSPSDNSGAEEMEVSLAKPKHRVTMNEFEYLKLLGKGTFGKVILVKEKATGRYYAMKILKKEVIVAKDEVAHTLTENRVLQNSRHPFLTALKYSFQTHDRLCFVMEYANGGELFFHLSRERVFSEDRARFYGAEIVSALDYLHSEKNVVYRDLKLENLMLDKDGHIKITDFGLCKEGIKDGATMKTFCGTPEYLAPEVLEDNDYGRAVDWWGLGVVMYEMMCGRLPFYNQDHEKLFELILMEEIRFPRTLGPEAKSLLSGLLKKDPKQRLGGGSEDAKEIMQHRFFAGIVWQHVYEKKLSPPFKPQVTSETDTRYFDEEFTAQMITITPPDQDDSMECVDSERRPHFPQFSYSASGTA

[4] = target: Cyclin-dependent kinase 16 (Homo sapiens) (UniProt Q00536); assay: Selectivity interaction (KinomeScan (DiscoverX)) EUB0000092b CDK16; conditions: at 10 µM
Sequence of Cyclin-dependent kinase 16 (Homo sapiens) (Q00536 whole entry): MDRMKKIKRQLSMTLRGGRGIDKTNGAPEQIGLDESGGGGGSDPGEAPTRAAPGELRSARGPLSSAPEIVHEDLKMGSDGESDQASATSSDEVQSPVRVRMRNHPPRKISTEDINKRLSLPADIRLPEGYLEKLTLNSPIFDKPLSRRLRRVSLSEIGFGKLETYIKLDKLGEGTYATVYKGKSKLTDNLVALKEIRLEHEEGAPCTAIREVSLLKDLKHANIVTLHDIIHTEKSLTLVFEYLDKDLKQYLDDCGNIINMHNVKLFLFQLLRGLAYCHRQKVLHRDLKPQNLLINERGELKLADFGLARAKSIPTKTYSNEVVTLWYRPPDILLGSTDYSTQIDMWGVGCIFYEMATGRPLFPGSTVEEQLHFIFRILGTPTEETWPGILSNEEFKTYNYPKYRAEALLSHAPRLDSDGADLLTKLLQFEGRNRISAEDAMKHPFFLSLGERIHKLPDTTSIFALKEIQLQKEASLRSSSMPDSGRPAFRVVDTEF

[5] = target: T2, Rhodopsin kinase GRK7 (Homo sapiens) (UniProt Q8WTQ7); assay: Selectivity interaction (KinomeScan (DiscoverX)) EUB0000618a GRK7; conditions: at 10 µM
T2 sequence (whole entry): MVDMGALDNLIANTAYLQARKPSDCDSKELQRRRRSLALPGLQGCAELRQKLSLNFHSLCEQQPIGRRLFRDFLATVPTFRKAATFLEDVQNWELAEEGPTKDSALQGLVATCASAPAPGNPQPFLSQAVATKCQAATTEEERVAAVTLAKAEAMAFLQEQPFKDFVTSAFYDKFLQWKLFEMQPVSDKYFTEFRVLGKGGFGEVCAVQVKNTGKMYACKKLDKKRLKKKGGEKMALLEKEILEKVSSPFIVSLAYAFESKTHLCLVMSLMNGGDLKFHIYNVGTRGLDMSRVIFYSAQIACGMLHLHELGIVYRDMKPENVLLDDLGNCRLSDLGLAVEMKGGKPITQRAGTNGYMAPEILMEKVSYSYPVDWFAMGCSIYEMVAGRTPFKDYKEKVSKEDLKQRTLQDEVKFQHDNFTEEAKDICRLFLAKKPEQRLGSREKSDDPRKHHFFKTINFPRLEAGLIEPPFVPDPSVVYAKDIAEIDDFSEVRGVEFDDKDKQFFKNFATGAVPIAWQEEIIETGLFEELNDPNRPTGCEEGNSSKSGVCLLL

[6] = target: T3, Cyclin-dependent kinase 11A (Homo sapiens) (UniProt Q9UQ88); assay: Selectivity interaction (KinomeScan (DiscoverX)) EUB0001619a CDK11A; conditions: at 1 µM
T3 sequence (whole entry): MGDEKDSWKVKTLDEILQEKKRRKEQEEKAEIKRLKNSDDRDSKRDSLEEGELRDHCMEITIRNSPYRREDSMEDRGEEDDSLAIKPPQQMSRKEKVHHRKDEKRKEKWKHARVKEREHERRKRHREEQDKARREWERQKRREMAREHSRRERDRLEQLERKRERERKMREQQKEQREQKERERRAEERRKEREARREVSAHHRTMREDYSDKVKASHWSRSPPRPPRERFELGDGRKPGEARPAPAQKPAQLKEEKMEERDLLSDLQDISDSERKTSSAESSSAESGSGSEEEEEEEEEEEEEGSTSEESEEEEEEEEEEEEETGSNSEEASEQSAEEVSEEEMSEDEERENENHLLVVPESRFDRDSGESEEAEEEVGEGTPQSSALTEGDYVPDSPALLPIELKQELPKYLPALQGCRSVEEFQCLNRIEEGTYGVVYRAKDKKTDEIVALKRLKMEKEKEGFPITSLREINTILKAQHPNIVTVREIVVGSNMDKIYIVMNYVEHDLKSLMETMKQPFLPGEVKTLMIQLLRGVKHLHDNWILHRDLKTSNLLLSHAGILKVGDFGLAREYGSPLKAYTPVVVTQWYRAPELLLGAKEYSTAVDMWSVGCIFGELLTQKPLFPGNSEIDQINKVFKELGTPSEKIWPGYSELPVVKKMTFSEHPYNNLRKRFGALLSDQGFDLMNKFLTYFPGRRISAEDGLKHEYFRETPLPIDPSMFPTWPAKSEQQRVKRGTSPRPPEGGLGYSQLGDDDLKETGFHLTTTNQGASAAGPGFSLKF

[7] = target: T4, Tyrosine-protein kinase ZAP-70 (Homo sapiens) (UniProt P43403); assay: Selectivity interaction (ActivX KiNativ screen (ex vivo kinase selectivity in human PBMCs)) EUB0001619a ZAP70; type: cell-based; conditions: PBMC, at 1 µM
T4 sequence (whole entry): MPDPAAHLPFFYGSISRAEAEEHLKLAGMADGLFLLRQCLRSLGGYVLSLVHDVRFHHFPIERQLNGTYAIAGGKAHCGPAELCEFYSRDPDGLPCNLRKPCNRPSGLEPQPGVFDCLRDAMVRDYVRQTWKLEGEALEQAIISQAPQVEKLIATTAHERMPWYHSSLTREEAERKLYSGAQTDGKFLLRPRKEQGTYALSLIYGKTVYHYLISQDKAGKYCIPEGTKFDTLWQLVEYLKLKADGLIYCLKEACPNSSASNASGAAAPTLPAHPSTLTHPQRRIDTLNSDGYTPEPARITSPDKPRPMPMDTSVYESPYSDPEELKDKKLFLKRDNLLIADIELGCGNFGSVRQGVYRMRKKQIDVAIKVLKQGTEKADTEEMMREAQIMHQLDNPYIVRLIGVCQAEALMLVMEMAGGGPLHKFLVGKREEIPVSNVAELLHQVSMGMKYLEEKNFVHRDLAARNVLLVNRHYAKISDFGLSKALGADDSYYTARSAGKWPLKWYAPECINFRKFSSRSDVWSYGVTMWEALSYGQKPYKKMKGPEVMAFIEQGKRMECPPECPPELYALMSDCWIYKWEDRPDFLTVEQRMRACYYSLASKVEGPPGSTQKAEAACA

% of control [1]: 100%
SMILES: CCN(CC)CCCCNc1ncc2cc(-c3cc(OC)cc(OC)c3)c(NC(=O)NC(C)(C)C)nc2n1

% of inhibition [2]: 3.8%
SMILES: CC[C@@H]1[C@H](F)C(=O)N[C@@H]1COc1nccc2cc(C(N)=O)c(OC)cc12 [ZIMLOVISERTIB]

SMILES: C=CC(=O)Nc1cc(-n2c(=O)ccc3cnc4ccc(-c5ccc(NS(C)(=O)=O)cc5)cc4c32)ccc1C
% of control ([3]; at 1 µM): 12% | % of control ([3]; at 10 µM): 100%

SMILES: CCC(=O)N1CCN(c2ccc(-n3c(=O)ccc4cnc5ccc(-c6cnc7ccccc7c6)cc5c43)cc2C(F)(F)F)CC1
% of control [4]: 91%

SMILES: O[C@H]1CC[C@H](Nc2ncc3nc(Nc4c(F)cc(F)cc4F)n([C@H]4CCOC4)c3n2)CC1
% of control [5]: 86%

SMILES: N#Cc1cccc(-c2c[nH]c3ncnc(N4CCOCC4)c23)c1
% of control [6]: 100% | % of inhibition [7]: -3%
